Test results from ChEMBL document CHEMBL1201862, “PubChem BioAssay data set” (2004).
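Method: 48-hour compound exposure of cells in 96-well plates, five concentrations, linear interpolation of endpoints. Here, GI50 denotes the concentration required for 50% inhibition of growth.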 Activity calls are given as the source filed them. No stated cut-off is given here; in the data, active = GI50 up to about 1.1 µM and inactive = higher.

Tests used:
Assay in all cases: NCI tumour cell line growth inhibition, 48 h
786-0 = test system: 786-0
A549 = test system: A549
ACHN = test system: ACHN
BT-549 = test system: BT-549
CAKI-1 = test system: CAKI-1
CCRF-CEM = test system: CCRF-CEM
COLO 205 = test system: COLO 205
DU-145 = test system: DU-145
EKVX = test system: EKVX
HCC 2998 = test system: HCC 2998
HCT-116 = test system: HCT-116
HCT-15 = test system: HCT-15
HL-60 = test system: HL-60
HOP-62 = test system: HOP-62
HT-29 = test system: HT-29
Hs-578T = test system: Hs-578T
IGROV-1 = test system: IGROV-1
K562 = test system: K562
KM12 = test system: KM12
LOX IMVI = test system: LOX IMVI
M14 = test system: M14
MCF7 = test system: MCF7
MDA-MB-231 = test system: MDA-MB-231
MDA-N = test system: MDA-N
MOLT-4 = test system: MOLT-4
Malme-3M = test system: Malme-3M
NCI-H226 = test system: NCI-H226
NCI-H23 = test system: NCI-H23
NCI-H460 = test system: NCI-H460
NCI-H522 = test system: NCI-H522
NCI/ADR-RES = test system: NCI/ADR-RES
OVCAR-4 = test system: OVCAR-4
OVCAR-5 = test system: OVCAR-5
OVCAR-8 = test system: OVCAR-8
PC-3 = test system: PC-3
RXF 393 = test system: RXF 393
SF-268 = test system: SF-268
SF-295 = test system: SF-295
SF-539 = test system: SF-539
SK-MEL-28 = test system: SK-MEL-28
SK-MEL-2 = test system: SK-MEL-2
SK-MEL-5 = test system: SK-MEL-5
SK-OV-3 = test system: SK-OV-3
SN12C = test system: SN12C
SNB-19 = test system: SNB-19
SNB-75 = test system: SNB-75
SR = test system: SR
SW-620 = test system: SW-620
T47D = test system: T47D
TK-10 = test system: TK-10
U-251 = test system: U-251
UACC-257 = test system: UACC-257
UACC-62 = test system: UACC-62
UO-31 = test system: UO-31
A498 = test system: A498
OVCAR-3 = test system: OVCAR-3
RPMI-8226 = test system: RPMI-8226
HOP-92 = test system: HOP-92
MDA-MB-435 = test system: MDA-MB-435

## CC1(C)c2ccccc2C(=O)C12CCC(=O)CC2
786-0
  GI50: > 100 µM (inactive)
A549
  GI50: > 100 µM (inactive)
ACHN
  GI50: > 100 µM (inactive)
BT-549
  GI50: > 100 µM (inactive)
CAKI-1
  GI50: > 100 µM (inactive)
CCRF-CEM
  GI50: > 100 µM (inactive)
COLO 205
  GI50: > 100 µM (inactive)
DU-145
  GI50: > 100 µM (inactive)
EKVX
  GI50: > 100 µM (inactive)
HCC 2998
  GI50: > 100 µM (inactive)
HCT-116
  GI50: > 100 µM (inactive)
HCT-15
  GI50: > 100 µM
HL-60
  GI50: > 100 µM (inactive)
HOP-62
  GI50: > 100 µM (inactive)
HT-29
  GI50: > 100 µM (inactive)
Hs-578T
  GI50: 69.8 µM (inactive)
IGROV-1
  GI50: > 100 µM (inactive)
K562
  GI50: > 100 µM (inactive)
KM12
  GI50: > 100 µM (inactive)
LOX IMVI
  GI50: > 100 µM (inactive)
M14
  GI50: > 100 µM (inactive)
MCF7
  GI50: > 100 µM (inactive)
MDA-MB-231
  GI50: > 100 µM (inactive)
MDA-N
  GI50: > 100 µM (inactive)
MOLT-4
  GI50: > 100 µM (inactive)
Malme-3M
  GI50: 60.5 µM (inactive)
NCI-H226
  GI50: > 100 µM (inactive)
NCI-H23
  GI50: > 100 µM (inactive)
NCI-H460
  GI50: > 100 µM (inactive)
NCI-H522
  GI50: > 100 µM (inactive)
NCI/ADR-RES
  GI50: > 100 µM (inactive)
OVCAR-4
  GI50: > 100 µM (inactive)
OVCAR-5
  GI50: > 100 µM (inactive)
OVCAR-8
  GI50: > 100 µM (inactive)
PC-3
  GI50: > 100 µM (inactive)
RXF 393
  GI50: 12.4 µM (inactive)
SF-268
  GI50: > 100 µM (inactive)
SF-295
  GI50: > 100 µM (inactive)
SF-539
  GI50: > 100 µM (inactive)
SK-MEL-28
  GI50: > 100 µM (inactive)
SK-MEL-2
  GI50: > 100 µM (inactive)
SK-MEL-5
  GI50: > 10 µM (inactive)
SK-OV-3
  GI50: > 100 µM (inactive)
SN12C
  GI50: > 100 µM (inactive)
SNB-19
  GI50: > 100 µM (inactive)
SNB-75
  GI50: 0.504 µM (active)
SR
  GI50: > 100 µM (inactive)
SW-620
  GI50: > 100 µM (inactive)
T47D
  GI50: > 100 µM (inactive)
TK-10
  GI50: > 100 µM (inactive)
U-251
  GI50: > 100 µM (inactive)
UACC-257
  GI50: > 100 µM (inactive)
UACC-62
  GI50: > 100 µM (inactive)
UO-31
  GI50: 33.7 µM (inactive)

## CN(Cc1cnc2nc(N)nc(N)c2n1)c1ccc(C(=O)NC2CCCCC2)cc1
786-0
  GI50: 11.6 µM (inactive)
A498
  GI50: 24.4 µM (inactive)
ACHN
  GI50: 23.3 µM (inactive)
BT-549
  GI50: 23.2 µM (inactive)
CAKI-1
  GI50: 63.7 µM (inactive)
CCRF-CEM
  GI50: 36.7 µM (inactive)
COLO 205
  GI50: 31.3 µM (inactive)
DU-145
  GI50: 37.6 µM (inactive)
EKVX
  GI50: 53.6 µM (inactive)
HCT-116
  GI50: 6.65 µM (inactive)
HCT-15
  GI50: 20.8 µM
HL-60
  GI50: 23.7 µM (inactive)
HOP-62
  GI50: 34.5 µM (inactive)
HT-29
  GI50: 16.2 µM (inactive)
Hs-578T
  GI50: 23.6 µM (inactive)
IGROV-1
  GI50: 13.3 µM (inactive)
K562
  GI50: 7.33 µM (inactive)
KM12
  GI50: 26.9 µM (inactive)
LOX IMVI
  GI50: 5.51 µM (inactive)
M14
  GI50: 10.6 µM (inactive)
MCF7
  GI50: 29 µM (inactive)
MDA-MB-231
  GI50: 33.6 µM (inactive)
MDA-N
  GI50: 7.69 µM (inactive)
MOLT-4
  GI50: 34.7 µM (inactive)
Malme-3M
  GI50: 20.9 µM (inactive)
NCI-H226
  GI50: 23.1 µM (inactive)
NCI-H23
  GI50: 36.1 µM (inactive)
NCI-H460
  GI50: 20.1 µM (inactive)
NCI/ADR-RES
  GI50: > 100 µM (inactive)
OVCAR-3
  GI50: 56.2 µM (inactive)
OVCAR-5
  GI50: 74.3 µM (inactive)
OVCAR-8
  GI50: 14.2 µM (inactive)
PC-3
  GI50: 7.64 µM (inactive)
RPMI-8226
  GI50: > 100 µM (inactive)
RXF 393
  GI50: 33 µM (inactive)
SF-268
  GI50: 19 µM (inactive)
SF-295
  GI50: 32.4 µM (inactive)
SF-539
  GI50: 13.6 µM (inactive)
SK-MEL-2
  GI50: 35.5 µM (inactive)
SK-MEL-5
  GI50: 12.3 µM (inactive)
SK-OV-3
  GI50: 54.6 µM (inactive)
SN12C
  GI50: 75 µM (inactive)
SNB-19
  GI50: 14.9 µM (inactive)
SNB-75
  GI50: 25.2 µM (inactive)
SR
  GI50: 33.2 µM (inactive)
SW-620
  GI50: 11.1 µM (inactive)
T47D
  GI50: 87.1 µM (inactive)
TK-10
  GI50: 51.3 µM (inactive)
U-251
  GI50: 11.8 µM (inactive)
UACC-257
  GI50: 21.3 µM (inactive)
UACC-62
  GI50: 8.2 µM (inactive)
UO-31
  GI50: 87.3 µM (inactive)

## CN1CCN([C@H]2C[C@H]3[C@@H]4CC=C5C[C@@H](N6CCCC6)CC[C@]5(C)[C@H]4CC[C@]3(C)[C@H]2O)CC1
786-0
  GI50: 38.4 µM (inactive)
A498
  GI50: 46.1 µM (inactive)
A549
  GI50: 37.8 µM (inactive)
ACHN
  GI50: > 100 µM (inactive)
BT-549
  GI50: 95.5 µM (inactive)
CAKI-1
  GI50: > 10 µM (inactive)
CCRF-CEM
  GI50: 38.6 µM (inactive)
COLO 205
  GI50: 12.6 µM (inactive)
EKVX
  GI50: > 100 µM (inactive)
HCC 2998
  GI50: 33.3 µM (inactive)
HCT-116
  GI50: 22 µM (inactive)
HCT-15
  GI50: 38.4 µM
HL-60
  GI50: 21.2 µM (inactive)
HOP-62
  GI50: 51.1 µM (inactive)
HOP-92
  GI50: 84.9 µM (inactive)
HT-29
  GI50: 8 µM (inactive)
Hs-578T
  GI50: > 100 µM (inactive)
IGROV-1
  GI50: 67.8 µM (inactive)
K562
  GI50: 14.9 µM (inactive)
KM12
  GI50: 56 µM (inactive)
LOX IMVI
  GI50: 19.6 µM (inactive)
M14
  GI50: 15.6 µM (inactive)
MCF7
  GI50: > 100 µM (inactive)
MDA-MB-231
  GI50: 74.6 µM (inactive)
MDA-MB-435
  GI50: 26.1 µM (inactive)
MDA-N
  GI50: 19 µM (inactive)
MOLT-4
  GI50: 23.7 µM (inactive)
Malme-3M
  GI50: 19.9 µM (inactive)
NCI-H226
  GI50: > 100 µM (inactive)
NCI-H23
  GI50: > 100 µM (inactive)
NCI-H460
  GI50: 71.8 µM (inactive)
NCI-H522
  GI50: > 100 µM (inactive)
NCI/ADR-RES
  GI50: > 100 µM (inactive)
OVCAR-3
  GI50: > 100 µM (inactive)
OVCAR-4
  GI50: > 100 µM (inactive)
OVCAR-5
  GI50: 50.2 µM (inactive)
OVCAR-8
  GI50: 66.8 µM (inactive)
PC-3
  GI50: 47.9 µM (inactive)
RPMI-8226
  GI50: 24.9 µM (inactive)
RXF 393
  GI50: 10.7 µM (inactive)
SF-268
  GI50: 32.7 µM (inactive)
SF-295
  GI50: 48.4 µM (inactive)
SF-539
  GI50: 16.2 µM (inactive)
SK-MEL-28
  GI50: 20.6 µM (inactive)
SK-MEL-2
  GI50: > 100 µM (inactive)
SK-MEL-5
  GI50: 18.8 µM (inactive)
SK-OV-3
  GI50: > 100 µM (inactive)
SN12C
  GI50: > 100 µM (inactive)
SNB-19
  GI50: 90.4 µM (inactive)
SNB-75
  GI50: > 100 µM (inactive)
SR
  GI50: < 0.01 µM (active)
SW-620
  GI50: 33.4 µM (inactive)
T47D
  GI50: > 100 µM (inactive)
TK-10
  GI50: > 100 µM (inactive)
U-251
  GI50: 59.2 µM (inactive)
UACC-257
  GI50: 23.2 µM (inactive)
UACC-62
  GI50: 67.3 µM (inactive)
UO-31
  GI50: 94.4 µM (inactive)
